Experimental data published in patent US8591878B2, “Therapeutic compounds” (Merck Sharp & Dohme Corp., priority 2008, dated 2013).
Like-named read-outs stand apart in the source and are kept apart here.

Tested on: subgenomic HCV replicon in Huh-7 cells
Assay: Cell-Based HCV Replication Assay (replicon, NS3 Cell-ELISA)
Parameters: species or system hepatitis C virus (HCV)
Settings: Hepatitis C virus, read-out: Cell based HCV Replication Assay-IC50
Description: Another suitable assay is the cellular Replicon or rheplisa assay described as follows:
Cell-Based HCV Replication Assay
Cell clones that stably maintain subgenomic HCV replicon were obtained by transfecting Huh-7 cells with an RNA replicon identical to I377neo/NS3-3′/wt described by V. Lohmann et al., 285 SCIENCE 110 (Jul. 2, 1999) (EMBL-GENBANK No. AJ242652), followed by selection with neomycin sulfate (G418). Viral replication was monitored by measuring the expression of the NS3 protein by an ELISA assay performed directly on cells grown in 96-well microtiter plates (Cell-ELISA) using the anti-NS3 monoclonal antibody 10E5/24 (as described in International Patent Application Publication WO 02/59321). Cells were seeded into 96 well plates at a density of 10^4 cells per well in a final volume of 0.1 ml of DMEM/10% FCS. Two hours after plating, 50 μl of DMEM/10% FCS containing a 3× concentration of inhibitor were added, cells were incubated for 96 hours and then fixed for 10 minutes with ice-cold isopropanol. Each condition was tested in duplicate and average absorbance values were used for calculations. The cells were washed twice with PBS, blocked with 5% non-fat dry milk in PBS+0.1% TRITON X-100+0.02% SDS (PBSTS) and then incubated o/n at 4° C. with the 10E5/24 mab diluted in Milk/PBSTS. After washing 5 times with PBSTS, the cells were incubated for 3 hours at room temperature with Fe-specific anti-mouse IgG conjugated to alkaline phosphatase (Sigma), diluted in Milk/PBSTS. After washing again as above, the reaction was developed with p-nitrophenyl phosphate disodium substrate (Sigma) and the absorbance at 405/620 nm read at intervals. For calculations, we used data sets where samples incubated without inhibitors had absorbance values comprised between 1 and 1.5. The inhibitor concentration that reduced by 50% the expression of NS3 (IC50) was calculated by fitting the data to the Hill equation, Fraction inhibition=1−(Ai−b)/(A0−b)=[I]^n/([I]+IC50) where: • Ai=absorbance value of HBI10 cells supplemented with the indicated inhibitor concentration. • A0=absorbance value of HBI10 cells incubated without inhibitor. • b=absorbance value of Huh-7 cells plated at the same density in the same microtiter plates and incubated without inhibitor. • n=Hill coefficient.

[1] = Huh-7 cells with subgenomic HCV replicon, NS3 expression by Cell-ELISA, 96 hours incubation

| SMILES | IC50 [1] [nM] | IC50 (Huh-7, 96 h) [nM] |
| --- | --- | --- |
| C=C[C@@H]1C[C@]1(NC(=O)[C@@H]1C[C@@H]2CN1C(=O)[C@H](C1CCCC1)NC(=O)N1CCC[C@@H]1COCCCc1ccc3nc(OCC)nc(c3c1)O2)C(=O)NS(=O)(=O)C1CC1 [Example 28, (6R,8S,11S,17aR)-11-cyclopentyl-N-((1R,2S)-1-{[(cyclopropylsulfonyl)amino]carbonyl}-2-vinylcyclopropyl)-3-ethoxy-10,13-dioxo-7,8,10,11,12,13,16,17,17a,18, 20,21-dodecahydro-6H,15H-1,22-(ethanediylidene)-6,9-methanopyrimido [4,5-n] pyrrolo[2,1-c][1,13,4,6,9] dioxatriazacyclononadecine-8-carboxamide] | 6 | – |
| C=C[C@@H]1C[C@]1(NC(=O)[C@@H]1C[C@@H]2CN1C(=O)[C@H](C1CCCCC1)NC(=O)N1CCC[C@@H](CCCCc3cc4c(cc(-c5ccccc5)nc4cc3OC)O2)C1)C(=O)NS(=O)(=O)C1CC1 [Example 7, (3R,5S,8S,15R)-8-cyclohexyl-N-((1R,2S)-1-{[(cyclopropylsulfonyl)amino]carbonyl}-2-vinylcyclopropyl)-21-methoxy-7,10-dioxo-25-phenyl-2-oxa-6,9,11,24-tetraazapentacyclo [18.6.2.1^3,6.1^11,15.0^23,27] triaconta-1(27),20,22,23,25,27-hexaene-5-carboxamide] | – | 8 |
| C=C[C@@H]1C[C@]1(NC(=O)[C@@H]1C[C@@H]2CN1C(=O)[C@H](C1CCCC1)NC(=O)N1CC[C@@H](C1)OCCCCCc1cc3ccc(OC)cc3nc1O2)C(=O)NS(=O)(=O)C1CC1 [Example 18, (1R,19S,25S,28S)-25-cyclopentyl-N-((1R,2S)-1-{[(cyclopropylsulfonyl)amino]carbonyl}-2-vinylcyclopropyl)-7-methoxy-23,26-dioxo-2,18-dioxa-4,22,24,27-tetraazapentacyclo [25.2.1.1^19,22.0^3,12.0^5,10] hentriaconta-3(12),4,5,7,9,10-hexaene-28-carboxamide] | 7 | – |
| C=C[C@@H]1C[C@]1(NC(=O)[C@@H]1C[C@@H]2CN1C(=O)[C@H](C1CCCC1)NC(=O)N1CC[C@@H](C1)OC/C=C/c1cc3c(cc(OCC)nc3cc1OC)O2)C(=O)NS(=O)(=O)C1CC1 [Example 22, (3R,5S,8S,14S,17E)-8-cyclopentyl-N-((1R,2S)-1-{[(cyclopropylsulfonyl)amino]carbonyl}-2-vinylcyclopropyl)-24-ethoxy-20-methoxy-7,10-dioxo-2,15-dioxa-6,9,11,23-tetraazapentacyclo [17.6.2.1^3,6.1^11,14.0^22,26] nonacosa-1(25),17,19,21,23,26-hexaene-5-carboxamide] | 11 | – |
| CC[C@@H]1C[C@]1(NC(=O)[C@@H]1C[C@@H]2CN1C(=O)[C@H](C1CCCC1)NC(=O)N1CC[C@@H](C1)OCCC/C=C/c1cc3ccc(OC)cc3nc1O2)C(=O)NS(=O)(=O)C1CC1 [Example 19, (1R,13E,19S,25S,28S)-25-cyclopentyl-N-((1R,2R)-1-{[(cyclopropylsulfonyl)amino]carbonyl}-2-ethylcyclopropyl)-7-methoxy-23,26-dioxo-2,18-dioxa-4,22,24,27-tetraazapentacyclo [25.2.1.1^19,22.0^3,12.0^5,10] hentriaconta-3(12),4,5,7,9,10,13-heptaene-28-carboxamide] | 4 | – |
| C=C[C@@H]1C[C@]1(NC(=O)[C@@H]1C[C@@H]2CN1C(=O)[C@H](C1CCCC1)NC(=O)N1CC[C@H](COCCCc3nc4ccc(OC)cc4cc3O2)C1)C(=O)NS(=O)(=O)C1CC1 [Example 25, (1R,18S,24S,27S)-24-cyclopentyl-N-((1R,2R)-1-{[(cyclopropylsulfonyl)amino]carbonyl}-2-vinylcyclopropyl)-7-methoxy-22,25-dioxo-2,16-dioxa-11,21,23,26-tetraazapentacyclo [24.2.1.1^18,21.0^3,12.0^5,10] triaconta-3(12),4,5,7,9,10-hexaene-27-carboxamide] | 7 | – |
